The values below come from US20190298674A1 (Ovid Therapeutics, Inc., priority 2018, published 2019).

As usually defined, the half-life is the time needed for the level to fall by half in the phase considered. Lower therefore signals fast loss.

A short description of series [1]: in vivo. The following applies: plasma.
Description: (§1) “PK” refers to the pharmacokinetic profile. Cmax is defined as the highest plasma drug concentration estimated during an experiment (ng/ml). Tmax is defined as the time when Cmax is estimated (min). AUC0-∞ is the total area under the plasma drug concentration-time curve, from drug administration until the drug is eliminated (ng·hr/ml). The area under the curve is governed by clearance. Clearance is defined as the volume of blood or plasma that is totally cleared of its content of drug per unit time (ml/min).
Series [2] can be described thus: plasma pharmacokinetics. Particulars: in the dose range 5 mg-500 mg.
Description: as §1

Molecules are shown by their SMILES.

`N[C@H]1C[C@@H](C(=O)O)CC1=C(F)F` had a half-life in series [1] of 4 to 6 h. For the same compound, in series [2], the AUCs dose proportionality entry is given as “greater than proportional increase”.
